Assay results: the NIST ThermoML archive (doi:10.1021/je201152j)
Numbers after ± are expanded uncertainties.

What was measured:
[1] = refractive index (Na D-line) (dimensionless); details: 298.15 K; 101.33 kPa; Liquid; Standard Abbe refractometry
[2] = 298.15 K, 101.33 kPa, Liquid; for viscosity: Capillary tube (Ostwald / Ubbelohde) method; for speed of sound: Sing-around technique in a fixed-path interferometer; for mass density: Vibrating tube method

refractive index [1] | viscosity [2] [mPa·s] | speed of sound [2] [m/s] | mass density [2] [kg/m3] | SMILES
1.3595 ± 0.0004 | 1.091 ± 0.008 | 1144.2 ± 1.6 | 785.21 ± 0.42 | CCO [ethanol]
1.468 ± 0.0004 | 1.681 ± 0.013 | 1545.2 ± 1.9 | 1028.3 ± 0.5 | CN1CCCC1=O [N-methylpyrrolidone]
